According to the NIST ThermoML archive (doi:10.1016/j.jct.2006.10.008):

How the values were obtained:
[1] = xn = mol fraction of the nth substance listed; conditions: 298.15 K, 101 kPa, Liquid
[2] = excess molar enthalpy (molar enthalpy of mixing); xn = mol fraction of the nth substance listed; conditions: 298.15 K, 101 kPa, Liquid, Calvet calorimetry

ClCCCCCCCl [1,6-dichlorohexane] + COC=O
Conditions | excess molar enthalpy [kJ/mol] | mass density [kg/m3]
[1], x2 = 0.1205 | – | 1057.33
[1], x2 = 0.2277 | – | 1050.93
[1], x2 = 0.3234 | – | 1044.52
[1], x2 = 0.4146 | – | 1037.85
[1], x2 = 0.4858 | – | 1032.03
[1], x2 = 0.555 | – | 1025.73
[1], x2 = 0.6169 | – | 1019.68
[1], x2 = 0.6713 | – | 1013.87
[1], x2 = 0.7244 | – | 1007.71
[1], x2 = 0.7696 | – | 1002.16
[1], x2 = 0.811 | – | 996.6
[1], x2 = 0.8479 | – | 991.36
[1], x2 = 0.8838 | – | 986.03
[1], x2 = 0.9163 | – | 980.96
[1], x2 = 0.9461 | – | 976
[1], x2 = 0.9737 | – | 970.7
[2], x2 = 0.0953 | 0.242 | –
[2], x2 = 0.2199 | 0.4592 | –
[2], x2 = 0.3324 | 0.609 | –
[2], x2 = 0.4307 | 0.6964 | –
[2], x2 = 0.5033 | 0.7287 | –
[2], x2 = 0.5596 | 0.7339 | –
[2], x2 = 0.5977 | 0.7378 | –
[2], x2 = 0.6601 | 0.7237 | –
[2], x2 = 0.7167 | 0.6977 | –
[2], x2 = 0.7749 | 0.6517 | –
[2], x2 = 0.8296 | 0.5747 | –
[2], x2 = 0.8855 | 0.4729 | –
[2], x2 = 0.935 | 0.327 | –
[2], x2 = 0.974 | 0.174 | –

COC=O [methyl methanoate] + ClCCCl
Conditions | excess molar enthalpy [kJ/mol] | mass density [kg/m3]
[1], x1 = 0.0778 | – | 1227.3
[1], x1 = 0.1458 | – | 1211.22
[1], x1 = 0.2144 | – | 1194.43
[1], x1 = 0.2795 | – | 1177.71
[1], x1 = 0.3474 | – | 1160.37
[1], x1 = 0.4099 | – | 1143.76
[1], x1 = 0.4725 | – | 1126.96
[1], x1 = 0.5316 | – | 1110.73
[1], x1 = 0.5888 | – | 1094.68
[1], x1 = 0.6463 | – | 1077.99
[1], x1 = 0.6998 | – | 1062.25
[1], x1 = 0.753 | – | 1046.16
[1], x1 = 0.8045 | – | 1030.32
[1], x1 = 0.8548 | – | 1014.49
[1], x1 = 0.9043 | – | 998.6
[1], x1 = 0.9525 | – | 982.78
[2], x1 = 0.0754 | 0.0266 | –
[2], x1 = 0.1373 | 0.0459 | –
[2], x1 = 0.1901 | 0.0634 | –
[2], x1 = 0.2508 | 0.0793 | –
[2], x1 = 0.3109 | 0.0916 | –
[2], x1 = 0.3728 | 0.0996 | –
[2], x1 = 0.4325 | 0.103 | –
[2], x1 = 0.4874 | 0.103 | –
[2], x1 = 0.5372 | 0.101 | –
[2], x1 = 0.5928 | 0.0947 | –
[2], x1 = 0.6569 | 0.086 | –
[2], x1 = 0.7322 | 0.0733 | –
[2], x1 = 0.8084 | 0.0578 | –
[2], x1 = 0.8844 | 0.0398 | –
[2], x1 = 0.9514 | 0.0205 | –
